Assay: Accelerated stability test (50° C.) with pH stability test of sucralose sample solution
Assay type: physicochemical
Details: for Days to pH Failure / Days to pH Failure (Final Product Moisture Content) / Days to pH Failure (Initial Moisture Content) / Ph Stability: 50° C.; for Days to pH Failure: WHIRLPAK polyethylene bags, failure = pH drop ≧1.0; for Days to pH Failure (Final Product Moisture Content): final dried product; for Days to pH Failure (Final Product Moisture Content) / Days to pH Failure (Initial Moisture Content): Example 3; for Days to pH Failure (Initial Moisture Content): partially dried product at intermediate (initial) moisture content; for Initial pH difference: sample solution vs pH-adjusted water at time zero; for Initial pH: sample solution (5 g in 50 ml pH-adjusted water) at time zero
From the text: Label seven 6 oz. and seven 18 oz. WHIRLPAK® polyethylene bags with indelible marker for each batch being tested for stability. Accurately weigh 25 g±0.01 g of sucralose into each 6 oz. WHIRLPAK® polyethylene bag. Heat or impulse seal the 6 oz. bag to ensure air tightness. Cut off any excess polyethylene at the top of the bag above the seal. Place the 6 oz. sealed bag into the 18 oz. bag and heat or impulse seal the 18 oz. bag to ensure air tightness. Roll down the top of the 18 oz. bag above the seal and bend the metal ties to form hooks.
Place the prepared bags into an oven stabilized at 50° C.±0.5° C. by hanging them from racks by the bag hooks. The bags must be freely suspended and not touch anything. Record the time samples are placed into the oven.
The pH stability test is conducted on the sucralose at time zero (the day the samples are placed in the oven, before the sucralose is exposed to elevated temperature) and every 24 hours until the batch being tested fails the test.
Place approximately 100 ml of deionized water into a 150 ml beaker. Using 0.1 N hydrochloric acid and/or 0.1 N sodium hydroxide, adjust the pH of the water to be between 5.8 and 6.0. Record the pH reading.
Accurately weigh 5 g±0.001 g of the product to be tested and transfer it to a 50 ml volumetric flask. Dissolve and bring to the mark by adding pH-adjusted water. If the sample to be tested is one that has been exposed to heat, remove one bag of the batch being tested from the oven and allow it to cool to room temperature before opening and sampling.
Pour the solution into a 100 ml beaker containing a stir bar, and slowly stir the solution on a magnetic stirrer. Immerse the pH electrode in the sample, allow the pH reading to stabilize, and record the pH reading of the sample. If no pH drop is observed after all the bags have been tested, the experiment is void and the test must repeated with a larger number of bags.
Record (to one decimal place) the pH of both the pH-adjusted water used and the sample sucralose solution. Subtract the pH of the […]. Report the result as (−) for a pH drop and (+) for a pH gain, e.g.:
The sample fails the test if there is a pH drop of 1.0 pH unit or more. The pH stability of the batch is defined as the number of days until the pH drop between the sample solution and that of the pH adjusted water is ≧1.0.
Samples of sucralose were tested for stability using the above procedures, but using bags of different moisture permeability. All other experimental details were the same. The TYVEK®/polyethylene bags are permeable; the WHIRLPAK® bags are less permeable. The A8080 bag consists of aluminum foil laminated to low-density polyethylene, which makes it very impermeable to moisture.

[1] = Example 2, pH at crystallizer varied
[2] = Example 1, sodium acetate in mother liquor varied
[3] = (−) pH drop, (+) pH gain, Example 1

Days to pH Failure [2] [Days] | Initial pH [2] | Initial pH difference [3] | Compound | also measured
 |  |  | OC[C@H]1O[C@H](O[C@]2(CCl)O[C@H](CCl)[C@@H](O)[C@@H]2O)[C@H](O)[C@@H](O)[C@H]1Cl [Sample 36, 4,1′,6′-trichloro-4,1′,6′-trideoxy-galactosucrose] | Days to pH Failure [1]: 5 Days; Days to pH Failure (Final Product Moisture Content): 5 Days; Days to pH Failure (Initial Moisture Content): 7 Days; Initial pH difference [1]: +0.04
6 | 5.85 | −0.10 | OC[C@H]1O[C@H](O[C@]2(CCl)O[C@H](CCl)[C@@H](O)[C@@H]2O)[C@H](O)[C@@H](O)[C@H]1Cl [Sample 12, 4,1′,6′-trichloro-4,1′,6′-trideoxy-galactosucrose] | 
 |  |  | OC[C@H]1O[C@H](O[C@]2(CCl)O[C@H](CCl)[C@@H](O)[C@@H]2O)[C@H](O)[C@@H](O)[C@H]1Cl [Sample 35, 4,1′,6′-trichloro-4,1′,6′-trideoxy-galactosucrose] | Days to pH Failure [1]: 5 Days; Days to pH Failure (Final Product Moisture Content): 5 Days; Days to pH Failure (Initial Moisture Content): 7 Days; Initial pH difference [1]: +0.10
6 | 5.95 | +0.02 | OC[C@H]1O[C@H](O[C@]2(CCl)O[C@H](CCl)[C@@H](O)[C@@H]2O)[C@H](O)[C@@H](O)[C@H]1Cl [Sample 14, 4,1′,6′-trichloro-4,1′,6′-trideoxy-galactosucrose] | 
6 | 5.44 | −0.48 | OC[C@H]1O[C@H](O[C@]2(CCl)O[C@H](CCl)[C@@H](O)[C@@H]2O)[C@H](O)[C@@H](O)[C@H]1Cl [Sample 3, 4,1′,6′-trichloro-4,1′,6′-trideoxy-galactosucrose] | 
5 | 6.03 | +0.06 | OC[C@H]1O[C@H](O[C@]2(CCl)O[C@H](CCl)[C@@H](O)[C@@H]2O)[C@H](O)[C@@H](O)[C@H]1Cl [Sample 31, 4,1′,6′-trichloro-4,1′,6′-trideoxy-galactosucrose] | 
5 | 6.12 | +0.13 | OC[C@H]1O[C@H](O[C@]2(CCl)O[C@H](CCl)[C@@H](O)[C@@H]2O)[C@H](O)[C@@H](O)[C@H]1Cl [Sample 23, 4,1′,6′-trichloro-4,1′,6′-trideoxy-galactosucrose] | 
6 | 6.05 | +0.10 | OC[C@H]1O[C@H](O[C@]2(CCl)O[C@H](CCl)[C@@H](O)[C@@H]2O)[C@H](O)[C@@H](O)[C@H]1Cl [Sample 21, 4,1′,6′-trichloro-4,1′,6′-trideoxy-galactosucrose] | 
6 | 5.99 | +0.03 | OC[C@H]1O[C@H](O[C@]2(CCl)O[C@H](CCl)[C@@H](O)[C@@H]2O)[C@H](O)[C@@H](O)[C@H]1Cl [Sample 27, 4,1′,6′-trichloro-4,1′,6′-trideoxy-galactosucrose] | 
6 | 6.08 | +0.09 | OC[C@H]1O[C@H](O[C@]2(CCl)O[C@H](CCl)[C@@H](O)[C@@H]2O)[C@H](O)[C@@H](O)[C@H]1Cl [Sample 22, 4,1′,6′-trichloro-4,1′,6′-trideoxy-galactosucrose] | 
5 | 5.19 | −0.73 | OC[C@H]1O[C@H](O[C@]2(CCl)O[C@H](CCl)[C@@H](O)[C@@H]2O)[C@H](O)[C@@H](O)[C@H]1Cl [Sample 8, 4,1′,6′-trichloro-4,1′,6′-trideoxy-galactosucrose] | 
5 | 6.06 | +0.13 | OC[C@H]1O[C@H](O[C@]2(CCl)O[C@H](CCl)[C@@H](O)[C@@H]2O)[C@H](O)[C@@H](O)[C@H]1Cl [Sample 15, 4,1′,6′-trichloro-4,1′,6′-trideoxy-galactosucrose] | 
6 | 6.09 | +0.12 | OC[C@H]1O[C@H](O[C@]2(CCl)O[C@H](CCl)[C@@H](O)[C@@H]2O)[C@H](O)[C@@H](O)[C@H]1Cl [Sample 29, 4,1′,6′-trichloro-4,1′,6′-trideoxy-galactosucrose] | 
6 | 6.00 | +0.02 | OC[C@H]1O[C@H](O[C@]2(CCl)O[C@H](CCl)[C@@H](O)[C@@H]2O)[C@H](O)[C@@H](O)[C@H]1Cl [Sample 28, 4,1′,6′-trichloro-4,1′,6′-trideoxy-galactosucrose] | 
 |  |  | OC[C@H]1O[C@H](O[C@]2(CCl)O[C@H](CCl)[C@@H](O)[C@@H]2O)[C@H](O)[C@@H](O)[C@H]1Cl [Sample 32, 4,1′,6′-trichloro-4,1′,6′-trideoxy-galactosucrose] | Days to pH Failure [1]: 3 Days; stability at intermediate moisture contents compared with final moisture levels (crystallized with no pH control, intermediate moisture 3 to 5% vs final 0.05, 0.11, 0.21%): less stable at intermediate moisture contents (3 to 5%) than they were at their final moisture levels; Initial pH difference [1]: −0.90
 |  |  | OC[C@H]1O[C@H](O[C@]2(CCl)O[C@H](CCl)[C@@H](O)[C@@H]2O)[C@H](O)[C@@H](O)[C@H]1Cl [Sample 44, 4,1′,6′-trichloro-4,1′,6′-trideoxy-galactosucrose] | Days to pH Failure [1]: 6 Days; Initial pH difference [1]: −0.18
 |  |  | OC[C@H]1O[C@H](O[C@]2(CCl)O[C@H](CCl)[C@@H](O)[C@@H]2O)[C@H](O)[C@@H](O)[C@H]1Cl [sucralose, 4,1′,6′-trichloro-4,1′,6′-trideoxy-galactosucrose] | Ph Stability (package A8080 (aluminum foil laminated to low-density polyethylene), impermeable): 33 days; Ph Stability (package FF 91 TYVEK/Polyethylene, very permeable): 4 days
5 | 5.90 | −0.05 | OC[C@H]1O[C@H](O[C@]2(CCl)O[C@H](CCl)[C@@H](O)[C@@H]2O)[C@H](O)[C@@H](O)[C@H]1Cl [Sample 10, 4,1′,6′-trichloro-4,1′,6′-trideoxy-galactosucrose] | 
6 | 6.06 | +0.10 | OC[C@H]1O[C@H](O[C@]2(CCl)O[C@H](CCl)[C@@H](O)[C@@H]2O)[C@H](O)[C@@H](O)[C@H]1Cl [Sample 26, 4,1′,6′-trichloro-4,1′,6′-trideoxy-galactosucrose] | 
6 | 6.20 | +0.27 | OC[C@H]1O[C@H](O[C@]2(CCl)O[C@H](CCl)[C@@H](O)[C@@H]2O)[C@H](O)[C@@H](O)[C@H]1Cl [Sample 16, 4,1′,6′-trichloro-4,1′,6′-trideoxy-galactosucrose] | 
6 | 5.73 | −0.19 | OC[C@H]1O[C@H](O[C@]2(CCl)O[C@H](CCl)[C@@H](O)[C@@H]2O)[C@H](O)[C@@H](O)[C@H]1Cl [Sample 2, 4,1′,6′-trichloro-4,1′,6′-trideoxy-galactosucrose] | 
5 | 5.85 | −0.10 | OC[C@H]1O[C@H](O[C@]2(CCl)O[C@H](CCl)[C@@H](O)[C@@H]2O)[C@H](O)[C@@H](O)[C@H]1Cl [Sample 13, 4,1′,6′-trichloro-4,1′,6′-trideoxy-galactosucrose] | 
 |  |  | OC[C@H]1O[C@H](O[C@]2(CCl)O[C@H](CCl)[C@@H](O)[C@@H]2O)[C@H](O)[C@@H](O)[C@H]1Cl [Sample 45, 4,1′,6′-trichloro-4,1′,6′-trideoxy-galactosucrose] | Days to pH Failure [1]: 7 Days; Initial pH difference [1]: +0.17
6 | 5.64 | −0.28 | OC[C@H]1O[C@H](O[C@]2(CCl)O[C@H](CCl)[C@@H](O)[C@@H]2O)[C@H](O)[C@@H](O)[C@H]1Cl [Sample 5, 4,1′,6′-trichloro-4,1′,6′-trideoxy-galactosucrose] | 

Reference: patent US8017767B2, “Sucralose composition” (Tate & Lyle Public Limited Company, priority 2000, dated 2011)
